The values that follow come from US20190151290A1 (Hoffmann-La Roche Inc., priority 2015, published 2019).

Data set [1] concerns patients who had a linear GFR decline (diabetic nephropathy patients). The following applies: due to hemodynamic response.
The test system of data set [2] is patients with type 2 diabetes mellitus and acute coronary syndrome. Type of data set: in vivo. The following applies: aleglitazar 150 μg daily vs placebo, overall population.

With `CO[C@@H](Cc1ccc(OCCc2nc(-c3ccccc3)oc2C)c2ccsc12)C(=O)O` [aleglitazar, (S)-2-methoxy-3-{4-[2-(5-methyl-2-phenyl-oxazol-4-yl)-ethoxy]-benzo[b]thiophen-7-yl}-propionic acid], the “initial drop of GFR” value in data set [1] is listed as “reversible after stopping the drug”. In data set [2], the “hemoglobin A1C” value is “reduced”; the “incidence of cardiovascular death, myocardial infarction or stroke” value was “did not significantly decrease”; the “serum HDL-C level” value is given as “improved”; the serum triglyceride level entry is on record as “improved”.
